From patent US10765751B2, “pH sensitive carrier and preparation method thereof, and pH sensitive drug and pH sensitive drug composition each containing the carrier, and method for treating or preventing diseases using the same” (TERUMO KABUSHIKI KAISHA, priority 2012, dated 2020)

Test system: RAW cells
Experiment: Evaluation of cytosolic delivery where pH sensitive carrier and physiologically active substance were used independently
Type: cell-based
Conditions: 30 μg/mL peptide-FITC or OVA-FITC, carrier added separately (160 nmol pH sensitive compound, 100 nmol amphipathic substance); FIG. 22
Method: On the previous day, RAW cells were spread on a matsunami glass bottom dish and cultured with 10% FBS-containing MEM. After rinsing with PBS, MEM was added, followed by a one hour incubation. 1900 μL of MEM containing fluorescence-labeled peptide-FITC or fluorescence-labeled OVA-FITC at a concentration of 30 μg/mL was prepared and substituted with the culture medium. Moreover, a solution of 100 μL of a pH sensitive carrier was added, followed by 16 to 20 hours of incubation in the culture medium in such a state that both were mixed. It was already confirmed that the fluorescence-labeled peptide-FITC and fluorescence-labeled OVA-FITC were each not supported with the pH sensitive carrier in a mixed state with a pH sensitive carrier-containing solution. After rinsing with PBS and three hours post-incubation with 2 mL of fresh MEM, the cells were rinsed with PBS, followed by substitution with phenol red-free DMEM and observation through a fluorescence microscope. The culture was carried out by use of an incubator (MCO20AIC) set at 5% CO2 and 37° C. and the cells were observed through a fluorescence microscope (Axiovert 200M—soft: Axio vision 3.0—light source: Fluo Arc).

“fluorescence-labeled OVA-FITC: FITC fluorescence-labeled OVA model protein” was tested, and the “localisation of fluorescence-labeled peptide-FITC or OVA-FITC in cells (cytosolic delivery)” value was “remained in the endosome”.
